Reference: US20230250145A1, “COMPOSITIONS AND METHODS FOR THE TREATMENT OF CANCER” (MOMA Therapeutics, Inc., priority 2020, published 2023)

Tests used:
[1] = system: FANCM mRNA transcript in UWB1.289; assay: qPCR of FANCM mRNA expression after doxycycline induced shRNA; assay type: cell-based; conditions: three days of doxycycline treatment
Source text: All shRNAs were cloned into pLKO-tet-on vector, packaged into lentivirus and titered for each cell line for an MOI <0.7.

[2] = system: FANCM protein; assay: Western blot of FANCM protein levels; assay type: cell-based; conditions: cells treated with CRISPR RNP sgRNA (FIG. 4B)
Procedure: Cells were plated for all conditions at a necessary density for analysis (1×10^7 cells per/reaction for nuclear isolation). Following treatment, cells were washed with PBS and trypsinized with TrypLE until loss of adherence. Cells were collected in a 15 mL falcon tube and spun down into a pellet at 1,000 RPM×5 minutes. The supernatant is aspirated and pellets were then placed into downstream protocol (NE-PER cell fractionation kit protocol as provided by vendor). Samples were run on 3-8% Bis-tris gels (Thermo fisher Cat #EA0375PK2) for 45 minutes @ 200 v. […] Membranes were stained overnight at 4 degrees with appropriate antibodies.
FANCM: Anti-FANCM Antibody, clone CV5.1 (MABC545) 1:1000 dilution
Lamin B: Recombinant Anti-Lamin B1 antibody [EPR8985(B)] (ab133741) 1:2000 dilution

## shRNA #1307: doxycycline-inducible shRNA targeting FANCM, SEQ ID NO: 77, GACTTCATGAAACTCTATAAT
[1]
  FANCM mRNA transcripts (qPCR): loss of FANCM mRNA transcripts

## FANCM sgRNA #4: sgRNA targeting the FANCM locus, SEQ ID NO: 70, AAAGACCTTTATTGCCGCCG (synthetic chemically modified sgRNA (Synthego EZ kit), pattern not given here)
[2]
  FANCM protein expression (Western blot): loss of FANCM protein expression

## FANCM sgRNA #3: sgRNA targeting the FANCM locus, SEQ ID NO: 69, CATGACCACGGCGGCAATAA (synthetic chemically modified sgRNA (Synthego EZ kit), pattern not given here)
[2]
  FANCM protein expression (Western blot): loss of FANCM protein expression

## shRNA #1858: doxycycline-inducible shRNA targeting FANCM, SEQ ID NO: 78, AGGACGAGAGGAACGTATTTA
[1]
  FANCM mRNA transcripts (qPCR): loss of FANCM mRNA transcripts
